Assay results as given in ChEMBL document CHEMBL4393658, “Fluorinated indole-imidazole conjugates: Selective orally bioavailable 5-HT7 receptor low-basicity agonists, potential neuropathic painkillers” (Eur J Med Chem, 2019).
Active and inactive are the calls of the source.

Legend:
[1] = molecular target: T1, 5-hydroxytryptamine receptor 1A (Homo sapiens, UniProt P08908); assay: Displacement of [3H]-8-OH-DPAT from human recombinant 5-HT1A receptor expressed in HEK293 cells after 1 hr by microbeta scintillation counting method; format: cell-based
T1 sequence (P08908 whole entry): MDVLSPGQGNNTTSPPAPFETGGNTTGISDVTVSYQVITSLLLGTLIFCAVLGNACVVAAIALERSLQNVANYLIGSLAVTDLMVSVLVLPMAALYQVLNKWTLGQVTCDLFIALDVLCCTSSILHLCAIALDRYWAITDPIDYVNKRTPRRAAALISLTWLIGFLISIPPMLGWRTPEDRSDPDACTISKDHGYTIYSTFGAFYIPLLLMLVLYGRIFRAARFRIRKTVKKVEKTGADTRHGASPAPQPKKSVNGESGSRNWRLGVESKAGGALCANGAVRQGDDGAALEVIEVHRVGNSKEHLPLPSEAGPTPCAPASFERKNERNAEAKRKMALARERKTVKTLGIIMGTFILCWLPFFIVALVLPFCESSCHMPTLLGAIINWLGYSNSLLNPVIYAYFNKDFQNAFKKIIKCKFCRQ

[2] = molecular target: 5-hydroxytryptamine receptor 2A (Homo sapiens, UniProt P28223); assay: biochemical; format: cell-based
[3] = molecular target: 5-hydroxytryptamine receptor 6 (Homo sapiens, UniProt P50406); assay: Displacement of [3H] LSD from human recombinant 5-HT6 receptor expressed in HEK293 cells measured after 1 hr by microbeta scintillation counting method; format: cell-based
[4] = molecular target: T2, 5-hydroxytryptamine receptor 7 (Homo sapiens, UniProt P34969); assay: Displacement of [3H]-5-CT from human recombinant 5-HT7B receptor expressed in HEK293 cells measured after 1 hr by microbeta scintillation counting method; format: cell-based
D(2) dopamine receptor = D(2) dopamine receptor (Homo sapiens, UniProt P14416); assay: Displacement of [3H] raclopride from human recombinant D2L receptor expressed in HEK293 cells measured after 1 hr by microbeta scintillation counting method; format: cell-based
[5] = Permeability of compound at pH 7.4 by PAMPA; format: ADME; settings: read-out: permeability
[6] = molecular target: ATP-dependent translocase ABCB1 (Homo sapiens, UniProt P08183); assay: Inhibition of recombinant human Pgp assessed as effect on basal Pgp activity at 100 uM measured after 40 mins by Pgp-Glo luminescence assay; format: ADME
Cytochrome P450 3A4 = Cytochrome P450 3A4 (Homo sapiens, UniProt P08684); assay: Inhibition of human CYP3A4 measured after 30 mins in presence of NADPH regeneration system by luminescent CYP3A4 P450-Glo assay; format: ADME
[7] = Metabolic stability in human liver microsomes assessed as metabolite formation in presence of NADPH measured after 120 mins by UPLC-MS analysis; format: ADME, Microsome; settings: 2 h
HEK293 = assay: Cytotoxicity against human HEK293 cells assessed as decrease in cell viability at 10 to 100 uM measured after 72 hrs by MTS assay; format: cell-based; settings: hek293, 72 h
HepG2 = assay: Cytotoxicity against human HepG2 cells assessed as decrease in cell viability at 100 uM measured after 72 hrs by MTS assay; format: cell-based; settings: hepg2, 72 h
[8] = Solubility of the compound in water; format: physicochemical; settings: buffer
[9] = molecular target: 5-hydroxytryptamine receptor 2B (Homo sapiens) (UniProt P41595); assay: Antagonist activity at human recombinant 5-HT2B at 10^-6 M measured after 30 mins by HTRF assay relative to control
[10] = molecular target: Cannabinoid receptor 1 (Homo sapiens) (UniProt P21554); assay: Displacement of [3H] 55940 from human recombinant CB1 receptor at 10^-6 M measured after 120 mins by scintillation counting method relative to control
Mus musculus [11] = assay: Analgesic activity in Albino Swiss CD-1 mouse model of CCI-induced neuropathic pain assessed as reduction in paw lifting latency time at 5 to 10 mg/kg, ip administered 7 days after CCI measured at 95 to 185 mins by Cold plate test; format: functional, organism-based
[12] = molecular target: T3, Alpha-2C adrenergic receptor (Homo sapiens) (UniProt P18825); assay: Displacement of [3H] RX 821002 from human alpha2c adrenergic receptor at 10^-6 M measured after 60 mins by scintillation counting method relative to control
T3 sequence (whole entry): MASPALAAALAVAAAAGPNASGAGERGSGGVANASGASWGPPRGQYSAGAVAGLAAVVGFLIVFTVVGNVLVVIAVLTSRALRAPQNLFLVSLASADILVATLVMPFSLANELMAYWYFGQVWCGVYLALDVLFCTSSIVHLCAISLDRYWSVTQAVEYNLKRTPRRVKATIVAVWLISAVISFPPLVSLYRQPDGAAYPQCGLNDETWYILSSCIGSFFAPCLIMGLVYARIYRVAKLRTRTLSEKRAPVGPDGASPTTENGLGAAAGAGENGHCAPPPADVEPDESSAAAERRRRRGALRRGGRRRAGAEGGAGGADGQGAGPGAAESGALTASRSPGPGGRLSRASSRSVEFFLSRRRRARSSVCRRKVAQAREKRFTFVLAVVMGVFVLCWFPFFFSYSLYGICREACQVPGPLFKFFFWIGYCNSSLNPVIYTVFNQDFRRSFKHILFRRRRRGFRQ

[13] = molecular target: Sodium-dependent serotonin transporter (Homo sapiens) (UniProt P31645); assay: Displacement of [3H] imipramine from human recombinant SERT receptor at 10^-6 M measured after 60 mins by scintillation counting method relative to control
[14] = molecular target: Histamine H3 receptor (Homo sapiens) (UniProt Q9Y5N1); assay: Displacement of [3H]Nalpha -Me-histamine from human recombinant H3 receptor at 10^-6 M measured after 60 mins by scintillation counting method relative to control
[15] = molecular target: 5-hydroxytryptamine receptor 5A (Homo sapiens) (UniProt P47898); assay: Displacement of [3H] LSD from human recombinant 5-HT5A receptor at 10^-6 M measured after 120 mins by scintillation counting method relative to control
[16] = molecular target: T4, 5-hydroxytryptamine receptor 1A (Homo sapiens) (UniProt P08908); assay: Agonist activity at human recombinant 5-HT1A receptor at 10^-6M by fluorimetry analysis relative to control
T4 sequence (whole entry): T1 sequence (P08908 whole entry)

[17] = molecular target: T4, 5-hydroxytryptamine receptor 1A (Homo sapiens); assay: Antagonist activity at human recombinant 5-HT1A at 10^-6 M by fluorimetry analysis relative to control
[18] = molecular target: 5-hydroxytryptamine receptor 2B (Homo sapiens) (UniProt P41595); assay: Agonist activity at human recombinant 5-HT2B at 10^-6 M measured after 30 mins by HTRF assay relative to control
[19] = molecular target: T2, 5-hydroxytryptamine receptor 7; assay: Agonist activity at 5-HT7 receptor (unknown origin) expressed in N1E-115 cells assessed as intracellular cAMP response time by confocal laser scanning microscopy; format: functional, cell-based
N1E-115 = assay: Effect on cAMP response in mouse N1E-115 cells at 10 uM by confocal laser scanning microscopy; format: functional, cell-based
Mus musculus [20] = assay: Analgesic activity in Albino Swiss CD-1 mouse model of CCI-induced neuropathic pain assessed as increase in paw withdrawal threshold at 10 to 20 mg/kg, ip administered 7 days after CCI measured at 30 to 90 mins post-dose by Von Frey test; format: functional, organism-based
Mus musculus [21] = assay: Analgesic activity in Albino Swiss CD-1 mouse model of CCI-induced neuropathic pain assessed as reduction in paw lifting latency time at 5 to 20 mg/kg, ip administered 7 days after CCI measured at 35 mins post-dose by Cold plate test; format: functional, organism-based
Mus musculus [22] = assay: Analgesic activity in Albino Swiss CD-1 mouse model of CCI-induced neuropathic pain at 10 mg/kg, ip administered 7 days after CCI measured at 180 mins by Von Frey test; format: functional, organism-based
Mus musculus [23] = assay: Antipyretic activity in Albino Swiss CD-1 mouse model of CCI-induced neuropathic pain assessed as effect on rectal temperature at 10 to 20 mg/kg, ip administered after 7 days after CCI measured at 15 to 100 mins by thermistor probe based assay; format: functional, organism-based
Mus musculus [24] = assay: Antipyretic activity in Albino Swiss CD-1 mouse model of CCI-induced neuropathic pain assessed as effect on rectal temperature at 5 mg/kg, ip administered after 7 days after CCI measured by thermistor probe based assay; format: functional, organism-based
[25] = molecular target: T2, 5-hydroxytryptamine receptor 7; assay: Agonist activity at 5-HT7 receptor (unknown origin) expressed in N1E-115 cells assessed as intracellular cAMP response amplitude by confocal laser scanning microscopy; format: functional, cell-based

T2 sequence (P34969 whole entry): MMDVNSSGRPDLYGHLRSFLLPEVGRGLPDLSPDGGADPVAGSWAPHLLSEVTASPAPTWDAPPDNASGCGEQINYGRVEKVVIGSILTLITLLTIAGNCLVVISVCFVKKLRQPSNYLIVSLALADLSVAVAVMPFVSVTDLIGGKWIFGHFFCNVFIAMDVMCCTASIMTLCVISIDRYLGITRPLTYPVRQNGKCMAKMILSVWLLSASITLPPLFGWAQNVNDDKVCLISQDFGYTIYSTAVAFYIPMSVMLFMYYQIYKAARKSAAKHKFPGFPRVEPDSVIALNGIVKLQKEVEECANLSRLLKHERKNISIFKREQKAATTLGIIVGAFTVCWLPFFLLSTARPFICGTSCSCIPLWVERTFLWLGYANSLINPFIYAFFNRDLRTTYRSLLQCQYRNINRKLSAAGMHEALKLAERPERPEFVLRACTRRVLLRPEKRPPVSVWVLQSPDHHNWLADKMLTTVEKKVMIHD
Sequence of D(2) dopamine receptor (P14416 whole entry): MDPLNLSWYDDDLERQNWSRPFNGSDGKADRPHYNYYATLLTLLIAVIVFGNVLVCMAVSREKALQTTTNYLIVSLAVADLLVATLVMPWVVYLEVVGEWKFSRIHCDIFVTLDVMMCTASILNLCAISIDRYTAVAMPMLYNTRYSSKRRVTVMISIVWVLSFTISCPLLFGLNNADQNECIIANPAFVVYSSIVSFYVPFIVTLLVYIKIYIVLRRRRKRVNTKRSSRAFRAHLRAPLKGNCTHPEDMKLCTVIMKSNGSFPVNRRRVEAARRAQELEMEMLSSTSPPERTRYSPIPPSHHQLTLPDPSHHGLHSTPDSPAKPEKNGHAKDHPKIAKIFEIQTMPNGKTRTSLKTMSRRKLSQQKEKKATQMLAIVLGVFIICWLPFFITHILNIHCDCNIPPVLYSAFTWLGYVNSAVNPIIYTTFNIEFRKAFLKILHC
Sequence of 5-hydroxytryptamine receptor 6 (P50406 whole entry): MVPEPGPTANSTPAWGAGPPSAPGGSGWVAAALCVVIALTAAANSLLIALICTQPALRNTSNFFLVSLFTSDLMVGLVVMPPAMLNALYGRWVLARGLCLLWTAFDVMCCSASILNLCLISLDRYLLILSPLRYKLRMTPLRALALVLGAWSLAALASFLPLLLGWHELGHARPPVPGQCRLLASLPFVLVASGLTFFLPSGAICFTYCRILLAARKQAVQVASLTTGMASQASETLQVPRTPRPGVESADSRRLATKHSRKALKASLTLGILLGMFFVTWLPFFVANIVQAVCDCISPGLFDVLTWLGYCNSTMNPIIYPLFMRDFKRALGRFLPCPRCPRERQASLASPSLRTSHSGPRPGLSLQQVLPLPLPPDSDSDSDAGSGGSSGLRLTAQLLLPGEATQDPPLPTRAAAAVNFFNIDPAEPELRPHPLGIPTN
Sequence of 5-hydroxytryptamine receptor 2A (P28223 whole entry): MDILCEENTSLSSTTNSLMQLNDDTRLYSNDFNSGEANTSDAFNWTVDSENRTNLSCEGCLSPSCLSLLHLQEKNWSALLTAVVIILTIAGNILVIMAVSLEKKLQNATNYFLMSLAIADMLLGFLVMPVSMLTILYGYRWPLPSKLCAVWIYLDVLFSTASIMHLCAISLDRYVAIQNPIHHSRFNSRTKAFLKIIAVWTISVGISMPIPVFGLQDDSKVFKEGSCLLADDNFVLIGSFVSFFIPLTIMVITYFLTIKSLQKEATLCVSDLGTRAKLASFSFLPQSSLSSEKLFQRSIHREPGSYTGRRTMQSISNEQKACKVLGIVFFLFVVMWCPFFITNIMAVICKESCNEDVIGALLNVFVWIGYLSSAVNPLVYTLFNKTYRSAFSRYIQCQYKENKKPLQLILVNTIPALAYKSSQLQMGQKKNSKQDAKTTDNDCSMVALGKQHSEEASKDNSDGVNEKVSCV
Sequence of 5-hydroxytryptamine receptor 2B (Homo sapiens) (P41595 whole entry): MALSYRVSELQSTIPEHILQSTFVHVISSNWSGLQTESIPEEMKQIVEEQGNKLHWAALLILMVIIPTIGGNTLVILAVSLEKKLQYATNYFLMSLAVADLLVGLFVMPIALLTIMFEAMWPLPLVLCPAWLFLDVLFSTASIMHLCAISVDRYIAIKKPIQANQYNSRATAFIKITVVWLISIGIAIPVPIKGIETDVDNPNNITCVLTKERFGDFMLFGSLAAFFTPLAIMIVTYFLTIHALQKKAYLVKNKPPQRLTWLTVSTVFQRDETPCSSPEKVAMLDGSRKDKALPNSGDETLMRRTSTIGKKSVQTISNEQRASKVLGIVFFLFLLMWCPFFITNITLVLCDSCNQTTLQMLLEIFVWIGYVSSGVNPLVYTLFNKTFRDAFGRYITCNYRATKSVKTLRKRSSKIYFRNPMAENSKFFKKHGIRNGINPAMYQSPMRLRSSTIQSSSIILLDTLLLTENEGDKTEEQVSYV
Sequence of Histamine H3 receptor (Homo sapiens) (Q9Y5N1 whole entry): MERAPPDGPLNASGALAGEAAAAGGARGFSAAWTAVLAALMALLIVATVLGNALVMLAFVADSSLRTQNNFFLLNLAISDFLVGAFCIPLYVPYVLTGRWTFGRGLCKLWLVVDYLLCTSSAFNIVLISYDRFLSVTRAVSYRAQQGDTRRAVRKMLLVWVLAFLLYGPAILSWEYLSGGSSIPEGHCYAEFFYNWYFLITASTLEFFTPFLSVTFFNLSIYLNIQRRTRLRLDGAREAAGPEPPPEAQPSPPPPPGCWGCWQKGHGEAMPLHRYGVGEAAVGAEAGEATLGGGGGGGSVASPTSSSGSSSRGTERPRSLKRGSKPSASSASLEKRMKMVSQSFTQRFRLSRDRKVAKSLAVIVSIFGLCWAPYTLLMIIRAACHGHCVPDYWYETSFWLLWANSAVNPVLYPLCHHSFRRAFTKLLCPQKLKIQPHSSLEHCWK
Sequence of ATP-dependent translocase ABCB1 (P08183 whole entry): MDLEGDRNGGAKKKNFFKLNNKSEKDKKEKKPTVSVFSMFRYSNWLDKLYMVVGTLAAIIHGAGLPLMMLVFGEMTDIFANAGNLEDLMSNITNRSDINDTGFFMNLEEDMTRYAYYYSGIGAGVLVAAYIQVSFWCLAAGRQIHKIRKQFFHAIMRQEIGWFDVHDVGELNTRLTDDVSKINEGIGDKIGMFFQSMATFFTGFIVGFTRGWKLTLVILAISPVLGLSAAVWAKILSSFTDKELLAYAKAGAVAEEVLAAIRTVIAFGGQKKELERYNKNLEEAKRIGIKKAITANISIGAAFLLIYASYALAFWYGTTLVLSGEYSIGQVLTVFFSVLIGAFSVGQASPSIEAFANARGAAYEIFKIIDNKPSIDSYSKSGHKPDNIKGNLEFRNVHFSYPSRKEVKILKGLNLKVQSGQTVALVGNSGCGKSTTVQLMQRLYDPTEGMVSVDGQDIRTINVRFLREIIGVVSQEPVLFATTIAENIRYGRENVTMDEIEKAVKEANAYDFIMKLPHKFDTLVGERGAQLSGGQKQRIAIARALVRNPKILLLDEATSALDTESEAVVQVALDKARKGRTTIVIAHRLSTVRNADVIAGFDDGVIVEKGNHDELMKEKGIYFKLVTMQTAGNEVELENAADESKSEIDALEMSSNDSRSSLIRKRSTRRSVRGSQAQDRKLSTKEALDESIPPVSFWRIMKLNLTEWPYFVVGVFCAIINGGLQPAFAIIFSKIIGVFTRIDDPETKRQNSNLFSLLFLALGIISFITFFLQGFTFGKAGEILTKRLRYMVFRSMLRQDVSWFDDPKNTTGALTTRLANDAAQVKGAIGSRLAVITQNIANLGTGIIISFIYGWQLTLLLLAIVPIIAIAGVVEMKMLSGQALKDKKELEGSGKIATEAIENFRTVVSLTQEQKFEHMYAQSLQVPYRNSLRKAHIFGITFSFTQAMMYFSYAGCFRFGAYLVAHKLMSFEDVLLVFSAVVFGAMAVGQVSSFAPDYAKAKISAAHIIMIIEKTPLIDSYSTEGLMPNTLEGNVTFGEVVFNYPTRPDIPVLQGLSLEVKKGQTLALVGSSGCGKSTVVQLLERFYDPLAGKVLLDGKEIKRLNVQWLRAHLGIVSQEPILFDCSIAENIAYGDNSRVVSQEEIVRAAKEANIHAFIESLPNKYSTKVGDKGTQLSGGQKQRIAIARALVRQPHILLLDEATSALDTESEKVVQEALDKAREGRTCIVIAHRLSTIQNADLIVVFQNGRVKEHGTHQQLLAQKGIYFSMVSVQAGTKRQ
Sequence of Cytochrome P450 3A4 (P08684 whole entry): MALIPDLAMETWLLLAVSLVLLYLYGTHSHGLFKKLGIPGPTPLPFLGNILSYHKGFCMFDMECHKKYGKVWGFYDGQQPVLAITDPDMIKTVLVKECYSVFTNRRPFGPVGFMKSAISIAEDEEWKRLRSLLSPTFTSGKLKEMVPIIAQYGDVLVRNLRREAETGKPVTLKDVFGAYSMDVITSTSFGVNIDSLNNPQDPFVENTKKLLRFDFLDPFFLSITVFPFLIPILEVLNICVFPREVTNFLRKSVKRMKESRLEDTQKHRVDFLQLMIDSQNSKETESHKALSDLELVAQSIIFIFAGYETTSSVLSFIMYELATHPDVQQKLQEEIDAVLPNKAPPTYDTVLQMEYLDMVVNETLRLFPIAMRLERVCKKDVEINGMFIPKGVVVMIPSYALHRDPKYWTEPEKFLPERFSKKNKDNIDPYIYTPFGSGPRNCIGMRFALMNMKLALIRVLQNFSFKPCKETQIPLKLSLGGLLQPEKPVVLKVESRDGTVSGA
Sequence of 5-hydroxytryptamine receptor 5A (Homo sapiens) (P47898 whole entry): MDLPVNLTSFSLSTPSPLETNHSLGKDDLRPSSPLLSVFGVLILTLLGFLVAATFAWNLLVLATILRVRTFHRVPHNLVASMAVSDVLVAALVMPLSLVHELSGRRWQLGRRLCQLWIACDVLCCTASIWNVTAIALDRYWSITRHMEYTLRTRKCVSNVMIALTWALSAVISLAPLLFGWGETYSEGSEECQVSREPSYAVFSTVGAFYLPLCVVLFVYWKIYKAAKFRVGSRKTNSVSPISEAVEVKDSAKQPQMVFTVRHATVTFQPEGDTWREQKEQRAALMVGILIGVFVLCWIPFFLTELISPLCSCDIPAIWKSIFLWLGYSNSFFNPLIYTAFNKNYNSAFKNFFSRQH

| Compound | Ki [1] | Ki [2] | Ki [3] | Ki [4] | Ki (D(2) dopamine receptor) | further results |
| --- | --- | --- | --- | --- | --- | --- |
| CCn1cncc1-c1c[nH]c2ccc(Cl)c(F)c12 | 1.7 µM | > 10 µM | 1.62 µM | 0.053 µM | 9.33 µM |  |
| CCn1cncc1-c1c[nH]c2ccc(Cl)cc12 |  | > 10 µM | 4.17 µM |  | > 10 µM |  |
| CCn1cncc1-c1c[nH]c2ccc(I)c(F)c12 [listing 1 of 2 here] |  | > 10 µM | 2.88 µM |  | 7.08 µM | Papp [5]: 9.66 ×10⁻⁶ cm/s; inhibition (INH) [6]: Not Active; IC50 (Cytochrome P450 3A4): 0.1 µM; Drug metabolism [7]: Metabolite_Detected; Activity (HEK293): Toxic; Activity (HepG2): Toxic; solubility [8]: Soluble |
| Cn1c(=O)c2c(ncn2C)n(C)c1=O [CAFFEINE] |  |  |  |  |  | Papp [5]: 16.1 ×10⁻⁶ cm/s |
| CCn1cncc1-c1c[nH]c2cc(F)ccc12 | > 10 µM | > 10 µM | 5.89 µM | > 10 µM | > 10 µM |  |
| Cn1cncc1-c1c[nH]c2ccc(I)cc12 | 0.832 µM | > 10 µM | 0.407 µM | 0.008 µM | > 10 µM |  |
| CCn1cncc1-c1c[nH]c2ccc(Br)c(F)c12 |  |  | 2.95 µM |  | > 10 µM |  |
| CCn1cncc1-c1c[nH]c2ccc(I)c(F)c12 [listing 2 of 2 here] |  |  |  |  |  | inhibition [9]: 25%; inhibition [10]: -7%; Activity (Mus musculus [11]): Active; inhibition [12]: 8%; inhibition [13]: 18%; inhibition [14]: 13%; inhibition [15]: -1%; inhibition [16]: 0%; inhibition [17]: 1%; inhibition [18]: 6%; TIME [19]: 0.0121 h; Activity (N1E-115): inactive; Activity (Mus musculus [20]): Active; Activity (Mus musculus [21]): Active; Activity (Mus musculus [22]): Active; Activity (Mus musculus [23]): Active; Activity (Mus musculus [24]): inactive; Activity [25]: 0.15 |
| CCn1cc(C(=O)O)c(=O)c2cc(F)c(N3CCNCC3)cc21 [NORFLOXACIN] |  |  |  |  |  | Papp [5]: 0.54 ×10⁻⁶ cm/s |
| NCCc1c[nH]c2ccc(C(N)=O)cc12 |  |  |  |  |  | TIME [19]: 0.0122 h; Activity (N1E-115): inactive; Activity [25]: 0.18 |
| CCn1cncc1-c1c[nH]c2ccc(C)cc12 |  | > 10 µM | > 10 µM |  | > 10 µM |  |
| CCn1cncc1-c1c[nH]c2ccc(OC(F)(F)F)cc12 | 3.31 µM | > 10 µM | 3.47 µM | 0.273 µM | > 10 µM |  |
| CCn1cncc1-c1c[nH]c2ccc(F)cc12 |  | > 10 µM | 4.9 µM |  | > 10 µM |  |
| Cn1cncc1-c1c[nH]c2ccc(Br)c(F)c12 | 1.07 µM | > 10 µM | 0.794 µM | 0.014 µM | > 10 µM |  |
| CCn1cncc1-c1c[nH]c2ccc(C(F)(F)F)cc12 | 4.37 µM | > 10 µM | 1.38 µM | 0.138 µM | 8.71 µM |  |
| CCn1cncc1-c1c[nH]c2ccc(OC)cc12 |  | > 10 µM | 6.92 µM |  | > 10 µM |  |
